In brackets after ≈: the same amount, converted by molar mass.
Columns and labels:
[1] = system: L1210 murine leukemia cells; test: evaluation of cytotoxic activity, method (a); assay type: cell-based; conditions: Mus musculus, 48 h at 37° C., 5% CO2, dose causing 50% inhibition of cell growth relative to untreated controls, 0.5% DMSO
Protocol: As an example, the activity of (E)-9-(2-methoxycarbonyl-ethenyl) camptothecin (internal code FCE 28681) and 9-(2-methoxycarbonyl-ethyl) camptothecin (internal code FCE 29559) were tested according to the following method (a).
The compounds were dissolved in dimethylsulfoxide (DMSO) at a final concentration of 0.5%.
Method (a): evaluation of cytotoxic activity
L1210 murine leukemia cells were grown in vitro as a floated cells in RPMI 1640 medium supplemented with 10% fetal calf serum, 1% L-glutamine 200 mM, 1% of B-mercaptoethanol 1 mM, 100 UI/ml penicillin and 100 μg streptomycin. For assaying the cytotoxic activity, exponentially growing cells were seeded at the concentration of 5×10^4 cells/ml and exposed to graded doses of the compounds under evaluation for 48 h at 37° C. in an humidified atmosphere of 5% CO2. The number of surviving cells was determined with a Coulter Counter; results are expressed as IC50 (dose causing 50% inhibition of cell growth in treated cultures relative to untreated controls after 48 h treatment) in this assay, (E)-9-(2-methoxycarbonyl-ethenyl) camptothecin (internal code FCE 28681) and 9-(2-methoxycarbonyl-ethyl) camptothecin (internal code FCE 29559) were tested and the obtained results are reported on Table 1 below.

cancer cells = conditions: both in vitro and in vivo; cited from earlier work
Topoisomerase I = conditions: cited from earlier work
[2] = human plasma, 2 hours after drug addition; cited from earlier work
human albumin = conditions: biologically relevant levels of human albumin; cited from earlier work

| SMILES | IC50 [1] | anticancer activity of the lactone versus the carboxylate form (cancer cells) | antitumor activity by inhibition of Topoisomerase I (Topoisomerase I) | percentage of drug converted to camptothecin carboxylate [2] | half-life of the biologically active form (human albumin) |
| --- | --- | --- | --- | --- | --- |
| CC[C@@]1(O)C(=O)OCc2c1cc1n(c2=O)Cc2cc3c(/C=C/C(=O)OC)cccc3nc2-1 [FCE 28681, (E)-9-(2-methoxycarbonyl-ethenyl)camptothecin] | 3.3 ± 1.8 ng/mL (≈ 7.63 nM) | – | – | – | – |
| CC[C@@]1(O)C(=O)OCc2c1cc1n(c2=O)Cc2cc3c(CCC(=O)OC)cccc3nc2-1 [FCE 29559, 9-(2-methoxycarbonyl-ethyl)camptothecin] | 2.7 ± 0.5 ng/mL (≈ 6.21 nM) | – | – | – | – |
| CC[C@@]1(O)C(=O)OCc2c1cc1n(c2=O)Cc2cc3ccccc3nc2-1 [camptothecin] | – | significantly greater for the lactone versus the carboxylate form | potent antitumor activity | greater than 99% | about 12 min. |

From patent US5856333A, “Substituted camptothecin derivatives and process for their preparation” (Pharmacia & Upjohn S.p.A., priority 1995, dated 1999)
